This passage reports TGI and GI50 results from PubChem BioAssay (NCI).

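Grown in 96-well plates, cells were treated for 48 hours with each compound at five concentrations. Insufficient inhibition: endpoint recorded as highest concentration tested. GI50 is the concentration that inhibits growth by half. Definition used: TGI = concentration required for complete inhibition of growth.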 Some results are limits rather than exact numbers.

Test systems include A498 renal; CAKI-1 renal; DLD-1 colon; HCT-116 colon; HL-60(TB) leukemia; HOP-92 NSCLC; OVCAR-5 ovarian; OVCAR-8 ovarian; SR leukemia; MDA-N.
What all share (assay): growth of human tumour cells (NCI), 48 h

For the compound `COc1cc2c(oc(=O)c3c4oc([Si](C)(C)C)cc4cc(OC)c23)c2cccc(O)c12`, the TGI in the assay on A498 renal, in the assay with CAKI-1 renal, with DLD-1 colon, with HCT-116 colon, in the assay with HL-60(TB) leukemia and in the assay on HOP-92 NSCLC was greater than 100 µM throughout. Further, the TGI in the assay with OVCAR-5 ovarian, in the assay with OVCAR-8 ovarian and with SR leukemia was greater than 100 µM each time.

As to `O=C(CCc1nnc2s/c(=C\c3ccc(Cl)cc3Cl)c(=O)n12)Nc1cc(Cl)c(Cl)cc1Cl`, the GI50 in the assay on A498 renal, in the assay on CAKI-1 renal, with DLD-1 colon, in the assay with HCT-116 colon, in the assay on OVCAR-5 ovarian and in the assay on OVCAR-8 ovarian was greater than 100 µM each time. Besides, in the assay with SR leukemia, the GI50 is greater than 100 µM. In addition, the TGI with A498 renal, in the assay on CAKI-1 renal, in the assay with DLD-1 colon, in the assay with HCT-116 colon, in the assay with HL-60(TB) leukemia and in the assay on HOP-92 NSCLC was greater than 100 µM throughout. The TGI in the assay on OVCAR-5 ovarian, in the assay with OVCAR-8 ovarian and in the assay with SR leukemia was greater than 100 µM throughout.

For `CC(C)(C)C(=O)Cc1cc2c(cc1C(=O)O)S(=O)(=O)NC(C(C)(C)C)=C2`, the TGI in the assay on A498 renal, in the assay with CAKI-1 renal, with DLD-1 colon, in the assay with HCT-116 colon, with HL-60(TB) leukemia and in the assay on HOP-92 NSCLC was greater than 100 µM throughout. Also, the TGI in the assay on OVCAR-5 ovarian, in the assay on OVCAR-8 ovarian and in the assay on SR leukemia was greater than 100 µM in each case.

On to `CC(C)OP(=O)(OC(C)C)c1ncn(-c2ccc([N+](=O)[O-])cc2)n1`, for which the TGI in the assay with A498 renal, in the assay on CAKI-1 renal, in the assay with DLD-1 colon, in the assay on HCT-116 colon, in the assay with HL-60(TB) leukemia and in the assay on HOP-92 NSCLC was greater than 100 µM throughout. The TGI with OVCAR-5 ovarian, in the assay with OVCAR-8 ovarian and in the assay on SR leukemia was greater than 100 µM throughout.

In the case of `O=C(Cl)c1cc([N+](=O)[O-])cc([N+](=O)[O-])c1`, the TGI with CAKI-1 renal, with DLD-1 colon, with HCT-116 colon, in the assay with HL-60(TB) leukemia, in the assay on HOP-92 NSCLC and in the assay on OVCAR-5 ovarian was greater than 100 µM throughout. Besides, the TGI in the assay on SR leukemia was greater than 100 µM.

For `COC(=O)[C@H]1ON2O[C@H](OC3CCCC[C@@H]3c3ccccc3)C[C@@H]3CC[C@H]1[C@@]32C` (stereo not given in full), the TGI was greater than 100 µM in the assay on A498 renal; greater than 100 µM in the assay with CAKI-1 renal; greater than 100 µM with HCT-116 colon; 98.5 µM with HL-60(TB) leukemia; greater than 100 µM in the assay with HOP-92 NSCLC; greater than 100 µM with MDA-N. For the same compound, the TGI with OVCAR-5 ovarian, with OVCAR-8 ovarian and with SR leukemia was greater than 100 µM throughout.

As for `Cc1ccc(-n2cc(-c3ccc(Cl)cc3)c3c(NNC(=S)NCc4ccccc4)ncnc32)cc1`, the TGI with A498 renal was 82.1 µM; in the assay with CAKI-1 renal, 29.1 µM; in the assay with HCT-116 colon, 16.8 µM; in the assay on HL-60(TB) leukemia it was greater than 100 µM; with HOP-92 NSCLC it was 66 µM; with MDA-N, greater than 100 µM. The TGI was 48.6 µM in the assay with OVCAR-5 ovarian, 69.3 µM in the assay on OVCAR-8 ovarian and 21.5 µM with SR leukemia.

For `COc1cccc(C(=O)C(O)c2cccc(OC)c2OC)c1OC` (stereo not given), the TGI in the assay on A498 renal, with CAKI-1 renal, with HCT-116 colon, in the assay with HL-60(TB) leukemia, in the assay on HOP-92 NSCLC and in the assay with MDA-N was greater than 100 µM each time. Moreover, the TGI in the assay on OVCAR-5 ovarian, with OVCAR-8 ovarian and in the assay with SR leukemia was greater than 100 µM in each case.

Consider `Cc1cccc2ns[s+]c12`, for which the TGI is greater than 100 µM with A498 renal; greater than 100 µM in the assay with CAKI-1 renal; greater than 100 µM with DLD-1 colon; 37.7 µM in the assay with HCT-116 colon; greater than 100 µM in the assay with HL-60(TB) leukemia; greater than 100 µM in the assay with HOP-92 NSCLC. The TGI in the assay with OVCAR-5 ovarian and in the assay with OVCAR-8 ovarian was greater than 100 µM in each case.

For `COc1cc(C2c3cc4c(c(O)c3C(=O)C3CCC(=O)N32)OCO4)cc(OC)c1OC` (stereo not given), the TGI in the assay on A498 renal is greater than 100 µM; in the assay with CAKI-1 renal, greater than 100 µM; with HCT-116 colon it was greater than 100 µM; with HL-60(TB) leukemia, greater than 100 µM; in the assay on HOP-92 NSCLC, 86.7 µM; in the assay on MDA-N, 91.9 µM. The TGI with OVCAR-5 ovarian, in the assay on OVCAR-8 ovarian and in the assay on SR leukemia was greater than 100 µM each time.

For the compound `Cc1ccc(-c2cn3c(nc4ccccc43)c(C)n2)cc1`, the TGI with A498 renal was greater than 77.5 µM; in the assay with CAKI-1 renal, greater than 100 µM; with HCT-116 colon it was greater than 100 µM; with HL-60(TB) leukemia, greater than 100 µM; in the assay on HOP-92 NSCLC, 98.1 µM; with MDA-N it was greater than 100 µM. Moreover, the TGI in the assay on OVCAR-5 ovarian, in the assay with OVCAR-8 ovarian and in the assay with SR leukemia was greater than 100 µM throughout.

Regarding `Clc1ccc(CCN2CCN(CCCc3ccccc3)CC2)cc1Cl`, the TGI was determined as 30 µM in the assay with A498 renal; 33.8 µM in the assay with CAKI-1 renal; 28.4 µM in the assay with HCT-116 colon; 44.7 µM in the assay on HL-60(TB) leukemia; 23.6 µM in the assay on HOP-92 NSCLC; 31.4 µM with MDA-N. Moreover, the TGI in the assay on OVCAR-5 ovarian was 29.9 µM; in the assay on OVCAR-8 ovarian it was 30.4 µM; in the assay with SR leukemia it was 78.8 µM.

With `O=C(O)CCCCCNC(=O)CCC(CN(CC(=O)OCc1ccccc1)CC(=O)OCc1ccccc1)N(CC(=O)OCc1ccccc1)CC(=O)OCc1ccccc1` (stereo not given), the TGI is 32.2 µM in the assay on A498 renal; 33.3 µM in the assay on CAKI-1 renal; 31.2 µM in the assay on HCT-116 colon; 32.8 µM with HL-60(TB) leukemia; 31.1 µM in the assay on HOP-92 NSCLC; 34.8 µM with MDA-N. The values for the TGI in the assay with OVCAR-5 ovarian, in the assay with OVCAR-8 ovarian and in the assay on SR leukemia were 32.6 µM, 30.1 µM and 42 µM, respectively.

For the compound `O=c1[nH]/c(=C/c2ccc(OCc3ccccc3)cn2)c(=O)[nH]/c1=C/c1cccnc1`, the TGI with A498 renal is 6.46 µM; in the assay with CAKI-1 renal, greater than 100 µM; in the assay with HCT-116 colon, greater than 100 µM; in the assay with HL-60(TB) leukemia it was 0.541 µM; with HOP-92 NSCLC it was greater than 100 µM; in the assay with MDA-N, 0.71 µM. Also, the TGI with OVCAR-5 ovarian, in the assay on OVCAR-8 ovarian and in the assay with SR leukemia was greater than 100 µM in each case.
